Drawing on PubChem BioAssay (NCI), this text covers GI50 and TGI for nine compounds.

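96-well plates; 48 h exposure; 5 concentrations. Endpoints by linear interpolation between flanking doses. Not reached: highest tested concentration assigned. At the GI50, growth is halved. Definition used: TGI = concentration required for complete inhibition of growth.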

What all share (experiment): NCI tumour cell line growth inhibition, 48 h
Assay [1] relates to SK-MEL-2 melanoma.
Assay [2] deals with OVCAR-4 ovarian.
In assay [3] the test system is SNB-19 CNS.
Assay [4] relates to UO-31 renal.
The test system of assay [5] is TK-10 renal.
Assay [6] relates to RXF 393 renal.
Assay [7] concerns HCT-15 colon.
Assay [8] concerns A498 renal.
Assay [9] relates to CAKI-1 renal.
Assay [10] relates to CCRF-CEM leukemia.

Consider `CCOC(=O)N(O)c1ccc(/C=C/c2ccccc2)cc1`, for which the GI50 in assay [1] was 8.62 µM; in assay [2], 7.21 µM; in assay [3] it was 18.5 µM; in assay [4] it was 6.03 µM; in [5] it was 2 µM; in assay [6], 13.2 µM. Besides, the GI50 is 9.18 µM in assay [7], 0.146 µM in assay [8], 2.7 µM in assay [9] and 9.38 µM in assay [10]. Besides, the TGI is 28.6 µM in assay [1]; > 84.2 µM in [2]; > 100 µM in assay [3]; 36.4 µM in assay [4]; 6.75 µM in [5]; > 90.4 µM in [6]. In addition, the TGI in assay [7] is 37.4 µM; in assay [8], 0.291 µM; in assay [9] it was 21.4 µM; in assay [10] it was > 93.5 µM.
Regarding `CCN(CC)CCNc1ccc([N+](=O)[O-])c2nc3ccc(OC)cc3c(N)c12`, the TGI in assay [1] worked out at 3.22 µM; in assay [2], 1.91 µM; in [3], 3.29 µM; in assay [4], 3.13 µM; in [5] it was 2.93 µM; in assay [6], 2.58 µM. For the same compound, the TGI in [7] came out at 2.68 µM; in [8] it was 3.08 µM; in assay [9], 3.85 µM; in assay [10] it was 1.31 µM.
As to `CN(C)CCOc1ccc2c(c1)C(=O)/C(=C\c1ncc([N+](=O)[O-])n1C)C2`, the GI50 in assay [1] is 0.631 µM; in assay [2], 0.529 µM; in [3], 1.15 µM; in assay [4], 0.9 µM; in assay [5], 1.57 µM; in [6], 0.316 µM. Also, the GI50 was 0.311 µM in assay [7], 0.307 µM in assay [8], 0.386 µM in [9] and 1.39 µM in assay [10]. The TGI in assay [1] was 1.93 µM; in assay [2], 3.53 µM; in assay [3], 3.18 µM; in [4], 3.68 µM; in assay [5], 4.8 µM; in [6] it was 1.25 µM. The TGI in [7] was 7.39 µM; in [8] it was 0.931 µM; in assay [9] it was 2.4 µM; in assay [10], > 100 µM.
Consider `COc1ccc2c(c1)[nH]c1c3ccc(OC)cc3oc(=O)c21`, for which the TGI in [1], in assay [2], in assay [3], in assay [4], in assay [5] and in [6] was > 100 µM in each case. In addition, the TGI in [7], in [8], in assay [9] and in [10] was > 100 µM each time.
As for `O=C1C=CC(=O)c2c(O)c(N(CCCl)CCCl)c(Cl)c(O)c21`, the TGI was > 7.91 µM in assay [1]; 6.24 µM in assay [2]; > 10 µM in assay [3]; > 7.1 µM in assay [4]; 4.93 µM in assay [5]; > 6.69 µM in [6]. Besides, the TGI in assay [7] is > 8.58 µM; in assay [8], > 9.53 µM; in assay [9], 6.51 µM; in assay [10] it was > 7.38 µM.
For the compound `COc1ccc(C2C3=C(COC3=O)N(CCO)c3cc4c(cc32)CCC4)cc1` (stereo unspecified), the GI50 in assay [1] was 1.45 µM; in assay [2], 5.46 µM; in assay [3] it was 7.48 µM; in [4] it was 5.86 µM; in assay [5], 3.36 µM; in [6], 4.24 µM. Also, the GI50 was 6.04 µM in [7], 2.36 µM in assay [8], 3.1 µM in assay [9] and 3.98 µM in assay [10]. For the same compound, the TGI in [1] is 4.74 µM; in assay [2], > 50 µM; in assay [3] it was > 50 µM; in assay [4], > 50 µM; in assay [5], 39.9 µM; in [6], 27.1 µM. Further, the TGI is > 50 µM in assay [7], > 50 µM in [8], 27.7 µM in [9] and > 50 µM in [10].
Regarding `Cc1c2ccccc2c(C)n2c1nc1cc(Cl)c(Cl)cc12`, the GI50 in [1] is > 100 µM; in assay [2], 22.4 µM; in [3], > 100 µM; in assay [4] it was 8.14 µM; in assay [5], > 100 µM; in [6], > 100 µM. Further, the GI50 is 93.5 µM in [7], > 100 µM in assay [8], 15.1 µM in [9] and 43.9 µM in assay [10]. The TGI in assay [1], in assay [2], in [3], in assay [4], in assay [5] and in [6] was > 100 µM in each case. Also, the TGI in [7], in assay [8], in assay [9] and in [10] was > 100 µM throughout.
Take `C[C@@H](C[C@H](CCO)c1ccccc1)c1ccc2ccccc2c1`: the GI50 is 1.52 µM in [1]; 1.51 µM in assay [2]; 1.79 µM in assay [3]; 1.54 µM in assay [4]; 1.62 µM in [5]; 1.45 µM in assay [6]. Also, the GI50 in assay [7] was 1.5 µM; in assay [8] it was 1.16 µM; in assay [9], 1.28 µM; in [10], 0.364 µM. Further, the TGI worked out at 3.02 µM in assay [1]; 2.88 µM in [2]; 3.42 µM in [3]; 2.88 µM in assay [4]; 3.12 µM in assay [5]; 2.91 µM in assay [6]. In addition, the TGI turned out to be 2.91 µM in assay [7], 2.42 µM in assay [8], 2.54 µM in assay [9] and 1.51 µM in assay [10].
For the compound `NC1=C(O)C(=O)C(c2c[nH]c3ccc(OCc4ccccc4)cc23)O1` (stereo unspecified), the TGI in assay [1], in [2], in assay [3], in assay [4], in assay [5] and in assay [6] was > 100 µM each time. In addition, the TGI in assay [7], in [8], in assay [9] and in assay [10] was > 100 µM throughout. Moreover, the GI50 in [10] was > 100 µM.
